Test results published in patent US4742053A, “3-Isoquinoliniomethyl cephalosporin derivatives” (Banyu Pharmaceutical Co., Ltd., priority 1984, dated 1988).
Values after ≈ are worked out from the molar mass of the structure shown. Like-named read-outs stand apart in the source and are kept apart here.

Tests used:
Test in all cases: MIC by agar plate dilution method
Type in all cases: cell-based
[1] = system: P. cepacia 23; details: Burkholderia cepacia; P. cepacia 23; 10^6 CFU/ml; read-out: Minimum Inhibitory Concentration
Procedure: (§1) The minimum inhibitory concentrations (MIC: μg/ml) of the compounds of the present invention against various microorganisms were measured by an agar plate dilution method (inoculum size: 10^6 CFU/ml) by using Sensitivity Disk Agar (Nissui) in comparison with Cefotaxime and Ceftazidime as comparative compounds.
(§2) Minimum Inhibitory Concentration (μg/ml; 10^6 CFU/ml)

[2] = system: P. vulgaris OB1043; details: Proteus vulgaris, OB1043, P. vulgaris OB1043; 10^6 CFU/ml; read-out: Minimum Inhibitory Concentration
Procedure: as §1, §2

[3] = system: P. mirabilis JY10; details: Proteus mirabilis; P. mirabilis JY10; 10^6 CFU/ml; read-out: Minimum Inhibitory Concentration
Procedure: as §1, §2

[4] = system: C. freundii No. 7; details: Citrobacter freundii; C. freundii No. 7; 10^6 CFU/ml; read-out: Minimum Inhibitory Concentration
Procedure: as §1, §2

[5] = system: S. marcescens No. 16-2; details: Serratia marcescens
Procedure: as §1, §2

[6] = system: P. vulgaris No. 33; details: Proteus vulgaris
Procedure: as §1, §2

[7] = system: E. coli CSH2; details: Escherichia coli, 10^6 CFU/ml, read-out: Minimum Inhibitory Concentration
Procedure: as §1, §2

[8] = system: E. cloaceae Nek 39; details: E. cloaceae Nek 39; 10^6 CFU/ml; read-out: Minimum Inhibitory Concentration
Procedure: as §1, §2

[9] = system: E. coli C/Rms149; details: Escherichia coli, read-out: Minimum Inhibitory Concentration, E. coli C/Rms149; 10^6 CFU/ml
Procedure: as §1, §2

[10] = system: E. coli ML1410/Rte16; details: Escherichia coli, ML1410/RTE16, read-out: Minimum Inhibitory Concentration, E. coli ML1410/Rte16; 10^6 CFU/ml
Procedure: as §1, §2

[11] = system: P. aeruginosa AK109; details: Pseudomonas aeruginosa, AK109, P. aeruginosa AK109; 10^6 CFU/ml; read-out: Minimum Inhibitory Concentration
Procedure: as §1, §2

[12] = system: A. calcoaceticus No. 14; details: Acinetobacter calcoaceticus, NO.14, A. calcoaceticus No. 14; 10^6 CFU/ml; read-out: Minimum Inhibitory Concentration
Procedure: as §1, §2

[13] = system: S. aureus JS-1; details: Staphylococcus aureus, JS1; S. aureus JS-1; 10^6 CFU/ml; read-out: Minimum Inhibitory Concentration
Procedure: as §1, §2

[14] = system: E. coli W3630/Rms213; details: Escherichia coli, W3630/RMS213, read-out: Minimum Inhibitory Concentration, E. coli W3630/Rms213; 10^6 CFU/ml
Procedure: as §1, §2

[15] = system: S. aureus NIHJJC-1; details: Staphylococcus aureus
Procedure: as §1, §2

[16] = system: E. coli NIHJJC-2; details: Escherichia coli, NIHJJC2, E. coli NIHJJC-2; 10^6 CFU/ml; read-out: Minimum Inhibitory Concentration
Procedure: as §1, §2

[17] = system: E. coli W3630/Rms212; details: Escherichia coli, W3630/RMS212, read-out: Minimum Inhibitory Concentration, E. coli W3630/Rms212; 10^6 CFU/ml
Procedure: as §1, §2

[18] = system: K. pneumoniae No. 42; details: Klebsiella pneumoniae; K. pneumoniae No. 42; 10^6 CFU/ml; read-out: Minimum Inhibitory Concentration
Procedure: as §1, §2

[19] = system: E. coli CSH; details: Escherichia coli, 10^6 CFU/ml, read-out: Minimum Inhibitory Concentration
Procedure: as §1, §2

[20] = system: P. maltophilia IID 1275; details: Stenotrophomonas maltophilia, IID1275; P. maltophilia IID 1275; 10^6 CFU/ml; read-out: Minimum Inhibitory Concentration
Procedure: as §1, §2

[21] = system: P. aeruginosa AKR17; details: Pseudomonas aeruginosa, AKR17, P. aeruginosa AKR17; 10^6 CFU/ml; read-out: Minimum Inhibitory Concentration
Procedure: as §1, §2

[22] = NO.162, S. marcescens No. 16-2, 10^6 CFU/ml, read-out: Minimum Inhibitory Concentration
[23] = P. vulgaris No. 33, 10^6 CFU/ml, read-out: Minimum Inhibitory Concentration
[24] = NIHJJC1, S. aureus NIHJJC-1, 10^6 CFU/ml, read-out: Minimum Inhibitory Concentration

Structure (SMILES) | MIC [1] [µg/mL] | MIC [2] [µg/mL] | MIC [3] [µg/mL] | MIC [4] [µg/mL] | MIC [5, 22] [µg/mL] | MIC [6, 23] [µg/mL] | MIC [7] [µg/mL] | MIC [8] [µg/mL] | MIC [9] [µg/mL] | MIC [10] [µg/mL] | MIC [11] [µg/mL] | MIC [12] [µg/mL] | MIC [13] [µg/mL] | MIC [14] [µg/mL] | MIC [16] [µg/mL] | MIC [17] [µg/mL] | MIC [18] [µg/mL] | MIC [19] [µg/mL] | MIC [20] [µg/mL] | MIC [21] [µg/mL] | further results
CC(C)(ON=C(C(=O)NC1C(=O)N2C(C(=O)[O-])=C(C[N+]3(C)CCc4cc(O)c(O)cc4C3)CSC12)c1csc(N)n1)C(=O)O (stereo not drawn) [Ex. 15, 7-[(Z)-2-(2-aminothiazol-4-yl)-2-(1-carboxy-1-methylethoxyimino)acetamido]-3-(6,7-dihydroxy-2-methyl-1,2,3,4-tetrahydro-2-isoquinolinium)methyl-3-cephem-4-carboxylate] | 0.025 (≈ 0.0387 µM) | 0.05 (≈ 0.0773 µM) | 0.1 (≈ 0.155 µM) | 0.2 (≈ 0.309 µM) | 0.39 (≈ 0.603 µM) | 1 (≈ 1.55 µM) | 0.025 (≈ 0.0387 µM) | < 0.006 | 0.0125 (≈ 0.0193 µM) | 0.025 (≈ 0.0387 µM) | 0.025 (≈ 0.0387 µM) | 0.78 (≈ 1.21 µM) | 100 (≈ 155 µM) | 0.025 (≈ 0.0387 µM) | 0.025 (≈ 0.0387 µM) | 0.025 (≈ 0.0387 µM) | 0.05 (≈ 0.0773 µM) | 0.05 (≈ 0.0773 µM) | 3.12 (≈ 4.82 µM) | 0.05 (≈ 0.0773 µM) | MIC [15, 24]: 12.5 µg/mL (≈ 19.3 µM)
C[N+]1(CC2=C(C(=O)[O-])N3C(=O)C(NC(=O)C(=NOC4(C(=O)O)CCC4)c4csc(N)n4)C3SC2)CCc2cc(O)c(O)cc2C1 (stereo not drawn) [Ex. 19, 7-[(Z)-2-(2-aminothiazol-4-yl)-2-(1-carboxy-1-cyclobutoxyimiino)acetamide]-3-(6,7-dihydroxy-2-methyl-1,2,3,4-tetrahydro2-isoquinolinium)methyl-3-cephem-4-carboxylate] | 0.0125 (≈ 0.019 µM) | 0.05 (≈ 0.0759 µM) | 0.1 (≈ 0.152 µM) | 0.78 (≈ 1.18 µM) | 0.39 (≈ 0.592 µM) | – | 0.05 (≈ 0.0759 µM) | 0.1 (≈ 0.152 µM) | 0.025 (≈ 0.038 µM) | 0.025 (≈ 0.038 µM) | 0.025 (≈ 0.038 µM) | 0.2 (≈ 0.304 µM) | 100 (≈ 152 µM) | 0.025 (≈ 0.038 µM) | 0.05 (≈ 0.0759 µM) | 0.025 (≈ 0.038 µM) | 0.05 (≈ 0.0759 µM) | 0.05 (≈ 0.0759 µM) | 3.12 (≈ 4.74 µM) | 0.1 (≈ 0.152 µM) | MIC ([6]; NO.33, read-out: Minimum Inhibitory Concentration): 0.05 µg/mL (≈ 0.0759 µM); MIC [15, 24]: 25 µg/mL (≈ 38 µM)
C[N+]1(CC2=C(C(=O)[O-])N3C(=O)C(NC(=O)C(=NOC4CCCC4)c4csc(N)n4)C3SC2)CCc2cc(O)c(O)cc2C1 (stereo not drawn) [Ex. 16-D, 7-[(Z)-2-(2-aminothiazol-4-yl)-2-cyclopentyloxyiminoacetamido]-3-(6,7-dihydroxy-2-methyl-1,2,3,4-tetrahydro-2-isoquinolinium)methyl-3-cephem-4-carboxylate] | 0.0125 (≈ 0.0199 µM) | 0.2 (≈ 0.318 µM) | 0.2 (≈ 0.318 µM) | 1.56 (≈ 2.48 µM) | – | 0.1 (≈ 0.159 µM) | 0.1 (≈ 0.159 µM) | 0.0125 (≈ 0.0199 µM) | 0.025 (≈ 0.0398 µM) | 0.025 (≈ 0.0398 µM) | 0.05 (≈ 0.0795 µM) | 1.56 (≈ 2.48 µM) | 12.5 (≈ 19.9 µM) | 0.1 (≈ 0.159 µM) | 0.1 (≈ 0.159 µM) | 0.0125 (≈ 0.0199 µM) | 0.1 (≈ 0.159 µM) | 0.1 (≈ 0.159 µM) | 12.5 (≈ 19.9 µM) | 0.2 (≈ 0.318 µM) | MIC ([5]; NO.162, read-out: Minimum Inhibitory Concentration): 1.56 µg/mL (≈ 2.48 µM); MIC ([15]; NIHJJC1, read-out: Minimum Inhibitory Concentration): 1.56 µg/mL (≈ 2.48 µM)
